# Data as given in patent US6465625B1, “Taxol derivatives” (Albany Molecular Research, Inc., priority 1995, dated 2002).
# Columns and labels:
# [1] = tested on: MOLT-4 cells, a lymphoblastic leukemia cell line; experiment: cytotoxicity against MOLT-4 cells (trypan blue exclusion, cell counts after 72 h); type: cell-based; settings: 100 nM to 0.1 nM, 0.5% DMSO
# Method: (§1) 18. To verify their potential as prodrugs, two taxol esters, taxol 2′-chloroacetate (2) and taxol 2′-acrylate (3), were tested for cytotoxicity against HL-60 cells, a promyelocytic leukemia cell line, and MOLT-4 cells, a lymphoblastic leukemia cell line.^20 Both derivatives had IC50 values about ten times higher than that of taxol for each cell line.
# (§2) 20. Cells were seeded in 96-well plates at densities of 30,000 cells/well and grown in RPMI-1640 medium containing 10% bovine calf serum at 37° C. for 24 h. The medium was then replaced with fresh medium containing the taxol esters (excluding taxol, which had been removed by preparative TLC) dissolved in DMSO at final concentrations ranging from 100 nM to 0.1 nM. The final concentration of DMSO in the cell medium was 0.5%. After 72 h, samples were removed for cell counts. Total cell number and viability were determined by trypan blue exclusion and manual cell counting on a hemacytometer.
# [2] = tested on: HL-60 cells, a promyelocytic leukemia cell line; experiment: cytotoxicity against HL-60 cells (trypan blue exclusion, cell counts after 72 h); type: cell-based; settings: 100 nM to 0.1 nM, 0.5% DMSO
# Method: as §1, §2
# solubility in water = settings: for solubility greater than that of taxol: relative to taxol, rounded figures of b160; for increase of water solubility relative to taxol: relative to taxol (<4 μg/ml)
SMILES,IC50 relative to that of taxol [1],IC50 relative to that of taxol [2],solubility greater than that of taxol (solubility in water),increase of water solubility relative to taxol (solubility in water; water) [fold],solubility (solubility in water; water) [µg/mL]
"CC(=O)OC1C(=O)C2(C)C(O)CC3OCC3(OC(C)=O)C2C(OC(=O)c2ccccc2)C2(O)CC(OC(=O)C(OC(=O)CCl)C(NC(=O)c3ccccc3)c3ccccc3)C(C)=C1C2(C)C (stereo not drawn) [compound 2, taxol 2′-chloroacetate]",about ten,about ten,–,–,–
"C=CC(=O)OC(C(=O)OC1CC2(O)C(OC(=O)c3ccccc3)C3C4(OC(C)=O)COC4CC(O)C3(C)C(=O)C(OC(C)=O)C(=C1C)C2(C)C)C(NC(=O)c1ccccc1)c1ccccc1 (stereo not drawn) [compound 3, Taxol 2′-acrylate]",about ten,about ten,–,–,–
"CC(=O)O[C@H]1C(=O)[C@@]2(C)C([C@H](OC(=O)c3ccccc3)[C@]3(O)C[C@H](OC(=O)[C@H](OC(=O)CCCCC(=O)OCC4OC(O)C(O)C(O)C4O)[C@@H](NC(=O)c4ccccc4)c4ccccc4)C(C)=C1C3(C)C)[C@]1(OC(C)=O)CO[C@@H]1C[C@@H]2O (stereo partly drawn) [taxol 2′-(adipoyl)glucose, Taxol 2′-(adipoyl) glucose]",–,–,60 times,58,–
"CC(=O)O[C@H]1C(=O)[C@@]2(C)C([C@H](OC(=O)c3ccccc3)[C@]3(O)C[C@H](OC(=O)[C@H](OC(=O)CCCCC(=O)O)[C@@H](NC(=O)c4ccccc4)c4ccccc4)C(C)=C1C3(C)C)[C@]1(OC(C)=O)CO[C@@H]1C[C@@H]2O (stereo partly drawn) [taxol 2′-adipic acid, Taxol 2′-adipic acid]",–,–,"1,700 times",1625,–
CC(=O)O[C@H]1C(=O)[C@@]2(C)[C@H]([C@H](OC(=O)c3ccccc3)[C@]3(O)C[C@H](OC(=O)[C@H](O)[C@@H](NC(=O)c4ccccc4)c4ccccc4)C(C)=C1C3(C)C)[C@]1(OC(C)=O)CO[C@@H]1C[C@@H]2O [taxol],–,–,–,–,< 4
